Assays:
[1] = biological target: T1, Cytochrome P450 11B2, mitochondrial (Homo sapiens, UniProt P19099); assay type: cell-based; settings: V79MZ, 1 h
T1 sequence (P19099 whole entry): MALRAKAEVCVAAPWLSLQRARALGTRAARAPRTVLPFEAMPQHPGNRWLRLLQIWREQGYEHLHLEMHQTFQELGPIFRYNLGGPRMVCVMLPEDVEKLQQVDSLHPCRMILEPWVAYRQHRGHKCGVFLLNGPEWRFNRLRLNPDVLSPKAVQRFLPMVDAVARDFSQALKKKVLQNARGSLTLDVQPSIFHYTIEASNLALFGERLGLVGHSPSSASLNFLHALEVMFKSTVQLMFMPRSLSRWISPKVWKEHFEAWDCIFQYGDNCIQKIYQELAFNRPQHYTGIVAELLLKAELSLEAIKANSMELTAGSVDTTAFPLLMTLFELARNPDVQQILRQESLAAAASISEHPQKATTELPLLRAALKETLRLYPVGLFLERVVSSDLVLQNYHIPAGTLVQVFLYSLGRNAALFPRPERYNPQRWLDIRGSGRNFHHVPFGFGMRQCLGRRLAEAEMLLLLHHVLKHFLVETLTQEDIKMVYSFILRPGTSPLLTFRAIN

V79MZ = test: Selectivity ratio of IC50 for human CYP11B1 expressed in hamster V79MZ cells to IC50 for human CYP11B2 expressed in hamster V79MZ cells; assay type: cell-based
CYP17 = biological target: T2, CYP17 (Homo sapiens, UniProt P05093); test: Inhibition of human recombinant CYP17 expressed in Escherichia coli using progesterone as substrate at 2 uM; settings: probe progesterone
T2 sequence (P05093 whole entry): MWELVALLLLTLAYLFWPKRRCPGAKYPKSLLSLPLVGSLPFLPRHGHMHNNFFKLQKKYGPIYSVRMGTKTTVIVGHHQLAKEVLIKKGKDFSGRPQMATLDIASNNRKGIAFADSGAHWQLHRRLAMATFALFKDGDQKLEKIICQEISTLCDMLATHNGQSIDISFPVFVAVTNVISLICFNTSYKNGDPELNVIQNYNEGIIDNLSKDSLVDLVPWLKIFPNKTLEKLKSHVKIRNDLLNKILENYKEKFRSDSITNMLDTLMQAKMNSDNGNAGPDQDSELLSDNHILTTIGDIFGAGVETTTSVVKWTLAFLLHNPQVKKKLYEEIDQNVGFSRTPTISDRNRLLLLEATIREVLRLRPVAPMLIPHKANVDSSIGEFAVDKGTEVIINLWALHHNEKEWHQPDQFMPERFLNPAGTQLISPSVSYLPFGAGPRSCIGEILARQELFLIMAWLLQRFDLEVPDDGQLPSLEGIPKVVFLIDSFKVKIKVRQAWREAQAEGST

CYP19 (aromatase) = biological target: T3, CYP19 (aromatase) (Homo sapiens, UniProt P11511); test: Inhibition of human recombinant CYP19 using [1beta3H]androstenedione as substrate at 500 nM; settings: recombinant human CYP19, probe [1beta3H]androstenedione
T3 sequence (P11511 whole entry): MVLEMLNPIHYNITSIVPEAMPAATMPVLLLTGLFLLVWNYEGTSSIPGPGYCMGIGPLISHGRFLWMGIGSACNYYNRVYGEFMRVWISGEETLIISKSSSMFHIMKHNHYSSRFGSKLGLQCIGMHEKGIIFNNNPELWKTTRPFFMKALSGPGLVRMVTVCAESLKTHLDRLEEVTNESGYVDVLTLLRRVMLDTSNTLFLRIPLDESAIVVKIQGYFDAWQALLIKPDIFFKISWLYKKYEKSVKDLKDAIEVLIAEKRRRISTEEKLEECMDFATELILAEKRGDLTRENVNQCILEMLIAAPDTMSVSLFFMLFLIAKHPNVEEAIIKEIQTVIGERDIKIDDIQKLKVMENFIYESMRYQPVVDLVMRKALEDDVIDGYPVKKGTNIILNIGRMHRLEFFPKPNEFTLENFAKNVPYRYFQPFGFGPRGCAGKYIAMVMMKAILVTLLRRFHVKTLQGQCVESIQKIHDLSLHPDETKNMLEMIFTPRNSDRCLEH

[2] = biological target: T4, Cytochrome P450 11B1, mitochondrial (Homo sapiens, UniProt P15538)
T4 sequence (P15538 whole entry): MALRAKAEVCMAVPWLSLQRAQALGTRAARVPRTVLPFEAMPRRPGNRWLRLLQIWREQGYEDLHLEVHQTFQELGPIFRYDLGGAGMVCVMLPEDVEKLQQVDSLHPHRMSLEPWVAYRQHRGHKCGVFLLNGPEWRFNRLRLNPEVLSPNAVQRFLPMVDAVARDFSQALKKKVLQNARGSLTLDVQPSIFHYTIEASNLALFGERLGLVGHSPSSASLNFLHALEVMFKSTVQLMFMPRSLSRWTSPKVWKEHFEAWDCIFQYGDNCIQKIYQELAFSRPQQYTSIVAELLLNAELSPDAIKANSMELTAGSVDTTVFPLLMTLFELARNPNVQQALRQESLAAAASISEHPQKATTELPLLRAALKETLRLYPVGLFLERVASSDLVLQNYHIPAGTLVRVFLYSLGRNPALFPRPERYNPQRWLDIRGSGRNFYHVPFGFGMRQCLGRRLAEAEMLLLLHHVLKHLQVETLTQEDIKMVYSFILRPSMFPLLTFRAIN
Description: Inhibition of human CYP11B1 expressed in hamster V79MZ cells using [3H]-11-deoxycorticosterone as substrate after 1 hr by HPLC analysis

[3] = biological target: T1, Cytochrome P450 11B2, mitochondrial
Description: Inhibition of human CYP11B2 expressed in hamster V79MZ cells using [3H]-11-deoxycorticosterone as substrate after 1 hr by HPLC analysis

[4] = AUC in Wistar rat at 1 mg/kg, iv by HPLC-MS/MS analysis; assay type: ADME, organism-based; design: dose 1 mg/kg, route intravenous; settings: plasma
[5] = AUC in Wistar rat at 1 mg/kg, po by HPLC-MS/MS analysis; assay type: ADME, organism-based; design: dose 1 mg/kg, route oral; settings: plasma
[6] = Oral bioavailability in Wistar rat at 1 mg/kg by HPLC-MS/MS analysis; assay type: ADME, organism-based; settings: in vivo
[7] = Cmax in Wistar rat at 1 mg/kg, po after 0.5 hrs by HPLC-MS/MS analysis; assay type: ADME, organism-based; design: dose 1 mg/kg, route oral; settings: in vivo
[8] = Terminal half life in Wistar rat at 1 mg/kg, po by HPLC-MS/MS analysis; assay type: ADME, organism-based; design: dose 1 mg/kg, route oral; settings: in vivo, read-out: beta t1/2 (converted)
[9] = Terminal half life in Wistar rat at 1 mg/kg, iv by HPLC-MS/MS analysis; assay type: ADME, organism-based; design: dose 1 mg/kg, route intravenous; settings: in vivo, read-out: beta t1/2 (converted)

| inhibition [1] [%] | inhibition at 2 µM (CYP17) [%] | inhibition at 0.5 µM (CYP19 (aromatase)) [%] | IC50 [2] [µM] | IC50 [3] [µM] | AUC [4] [µg·h/mL] | AUC [5] [µg·h/mL] | bioavailability [6] [%] | Cmax [7] [µg/mL] | half-life [8] [h] | half-life [9] [h] | Structure (SMILES) | Ratio IC50 (V79MZ) |
| --- | --- | --- | --- | --- | --- | --- | --- | --- | --- | --- | --- | --- |
| 22 | – | – | – | – | – | – | – | – | – | – | COc1ccc(Sc2c(O)c(-c3cccnc3)cc3ccccc23)cc1 | – |
| 15 | – | – | – | – | – | – | – | – | – | – | c1ccc(Sc2cc(-c3cccnc3)cc3ccccc23)cc1 | – |
| 91 | < 5 | < 5 | 6.53 | 0.053 | – | – | – | – | – | – | [O-][S+](c1ccc(F)c(Cl)c1)c1c(O)c(-c2cccnc2)cc2ccccc12 (stereo not given) | 123 |
| 77 | < 5 | < 5 | 4.71 | 0.056 | – | – | – | – | – | – | [O-][S+](c1ccccc1OC(F)(F)F)c1c(O)c(-c2cccnc2)cc2ccccc12 (stereo not given) | 84 |
| 33 | – | – | – | – | – | – | – | – | – | – | [O-][S+](c1ccccc1)c1cc(-c2cccnc2)cc2ccccc12 (stereo not given) | – |
| 84 | < 5 | < 5 | 5.55 | 0.033 | – | – | – | – | – | – | [O-][S+](c1ccc(F)cc1)c1c(O)c(-c2cccnc2)cc2ccccc12 (stereo not given) | 168 |
| 90 | < 5 | < 5 | 8.33 | 0.033 | – | – | – | – | – | – | [O-][S+](c1ccc(Cl)c(Cl)c1)c1c(O)c(-c2cccnc2)cc2ccccc12 (stereo not given) | 253 |
| 83 | < 5 | < 5 | 5.81 | 0.014 | 1.78 | 0.335 | 19 | 0.0404 | 7 | 4 | [O-][S+](c1cccc(OC(F)(F)F)c1)c1c(O)c(-c2cccnc2)cc2ccccc12 (stereo not given) | 415 |
| 78 | < 5 | < 5 | 9.35 | 0.033 | – | – | – | – | – | – | [O-][S+](c1cc(C(F)(F)F)cc(C(F)(F)F)c1)c1c(O)c(-c2cccnc2)cc2ccccc12 (stereo not given) | 283 |
| 81 | < 5 | < 5 | 6.19 | 0.025 | – | – | – | – | – | – | [O-][S+](c1ccc(C(F)(F)F)cc1)c1c(O)c(-c2cccnc2)cc2ccccc12 (stereo not given) | 248 |
| 90 | < 5 | < 5 | 4.49 | 0.022 | – | – | – | – | – | – | [O-][S+](c1ccccc1Cl)c1c(O)c(-c2cccnc2)cc2ccccc12 (stereo not given) | 204 |
| 87 | < 5 | < 5 | 7.31 | 0.027 | – | – | – | – | – | – | COc1cccc([S+]([O-])c2c(O)c(-c3cccnc3)cc3ccccc23)c1 (stereo not given) | 271 |
| 85 | < 5 | < 5 | 6.71 | 0.033 | – | – | – | – | – | – | [O-][S+](c1ccccc1)c1c(O)c(-c2cccnc2)cc2ccccc12 (stereo not given) | 203 |
| 88 | < 5 | < 5 | 6.67 | 0.043 | – | – | – | – | – | – | [O-][S+](c1cccc(C(F)(F)F)c1)c1c(O)c(-c2cccnc2)cc2ccccc12 (stereo not given) | 155 |
| 86 | < 5 | < 5 | 1.1 | 0.064 | – | – | – | – | – | – | COc1ccccc1[S+]([O-])c1c(O)c(-c2cccnc2)cc2ccccc12 (stereo not given) | 17 |
| 16 | – | – | – | – | – | – | – | – | – | – | O=S(=O)(c1ccccc1)c1cc2ccccc2cc1-c1cccnc1 | – |
| 88 | < 5 | < 5 | 7.43 | 0.032 | – | – | – | – | – | – | [O-][S+](c1ccc(OC(F)(F)F)cc1)c1c(O)c(-c2cccnc2)cc2ccccc12 (stereo not given) | 232 |

More lines, now with the values behind:

| Structure (SMILES) | inhibition [1] [%] | inhibition at 2 µM (CYP17) [%] | inhibition at 0.5 µM (CYP19 (aromatase)) [%] | IC50 [2] [µM] | IC50 [3] [µM] | AUC [4] [µg·h/mL] | AUC [5] [µg·h/mL] | bioavailability [6] [%] | Cmax [7] [µg/mL] | half-life [8] [h] | half-life [9] [h] | Ratio IC50 (V79MZ) |
| --- | --- | --- | --- | --- | --- | --- | --- | --- | --- | --- | --- | --- |
| [O-][S+](c1ccccc1C(F)(F)F)c1c(O)c(-c2cccnc2)cc2ccccc12 (stereo not given) | 86 | < 5 | < 5 | 5.08 | 0.053 | – | – | – | – | – | – | 96 |
| COc1cccc(Sc2c(O)c(-c3cccnc3)cc3ccccc23)c1 | 20 | – | – | – | – | – | – | – | – | – | – | – |
| N#Cc1ccc([S+]([O-])c2c(O)c(-c3cccnc3)cc3ccccc23)cc1 (stereo not given) | 47 | – | – | – | – | – | – | – | – | – | – | – |
| [O-][S+](c1ccc(Cl)cc1)c1c(O)c(-c2cccnc2)cc2ccccc12 (stereo not given) | 84 | < 5 | < 5 | 8.95 | 0.022 | – | – | – | – | – | – | 407 |
| Oc1c(-c2cccnc2)cc2ccccc2c1Sc1ccccc1 | 22 | – | – | – | – | – | – | – | – | – | – | – |
| N#Cc1cccc([S+]([O-])c2c(O)c(-c3cccnc3)cc3ccccc23)c1 (stereo not given) | 84 | < 5 | < 5 | 8.55 | 0.046 | – | – | – | – | – | – | 186 |
| COc1ccccc1Sc1c(O)c(-c2cccnc2)cc2ccccc12 | 18 | – | – | – | – | – | – | – | – | – | – | – |
| [O-][S+](c1cccc(F)c1)c1c(O)c(-c2cccnc2)cc2ccccc12 (stereo not given) | 85 | < 5 | < 5 | 6.55 | 0.039 | – | – | – | – | – | – | 168 |
| [O-][S+](c1cccs1)c1c(O)c(-c2cccnc2)cc2ccccc12 (stereo not given) | 79 | < 5 | < 5 | 6.16 | 0.192 | – | – | – | – | – | – | 32 |
| COc1ccc([S+]([O-])c2c(O)c(-c3cccnc3)cc3ccccc23)cc1 (stereo not given) | 80 | < 5 | < 5 | 4.2 | 0.048 | – | – | – | – | – | – | 87 |
| [O-][S+](c1cccc(Cl)c1)c1c(O)c(-c2cccnc2)cc2ccccc12 (stereo not given) | 90 | < 5 | < 5 | 4.8 | 0.06 | – | – | – | – | – | – | 80 |
| [O-][S+](c1cc(Cl)cc(Cl)c1)c1c(O)c(-c2cccnc2)cc2ccccc12 (stereo not given) | 87 | < 5 | < 5 | 4.72 | 0.047 | – | – | – | – | – | – | 100 |

Reference: ChEMBL document CHEMBL3352541, “1-Phenylsulfinyl-3-(pyridin-3-yl)naphthalen-2-ols: a new class of potent and selective aldosterone synthase inhibitors” (Eur J Med Chem, 2015)
